Laboratory results as given in ChEMBL document CHEMBL1743341, “Cytochrome p450 enzymes mechanism based inhibitors: common sub-structures and reactivity” (Curr Drug Metab, 2005).

Tests used:
CYP2B6 [1] = target: T1, CYP2B6 (Homo sapiens, UniProt P20813); assay: (§1) Mechanism based inhibition of human cytochrome P450 2B6 using human liver microsomes; conditions: human, human liver microsomes
T1 sequence (P20813 whole entry): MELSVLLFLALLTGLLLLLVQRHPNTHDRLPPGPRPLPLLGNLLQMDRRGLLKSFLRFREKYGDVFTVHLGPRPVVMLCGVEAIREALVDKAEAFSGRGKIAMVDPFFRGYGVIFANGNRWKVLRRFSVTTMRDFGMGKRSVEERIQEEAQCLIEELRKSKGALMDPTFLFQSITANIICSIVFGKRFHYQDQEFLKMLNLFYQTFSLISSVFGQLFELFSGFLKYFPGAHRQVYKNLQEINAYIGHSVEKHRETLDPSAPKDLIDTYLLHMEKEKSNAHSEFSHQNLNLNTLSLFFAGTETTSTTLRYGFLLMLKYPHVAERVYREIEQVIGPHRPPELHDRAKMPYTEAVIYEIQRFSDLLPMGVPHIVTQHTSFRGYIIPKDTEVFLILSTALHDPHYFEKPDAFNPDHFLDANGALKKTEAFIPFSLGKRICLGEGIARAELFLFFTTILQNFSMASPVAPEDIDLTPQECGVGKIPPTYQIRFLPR

Cytochrome P450 2B6 [2] = target: T2, Cytochrome P450 2B6 (Homo sapiens, UniProt P20813); assay: as §1
T2 sequence (P20813 whole entry): T1 sequence (P20813 whole entry)

CYP2B6 [3] = target: T1, CYP2B6; assay: (§2) Mechanism based inhibition of human cytochrome P450 2B6 using recombinant CYP2B6; conditions: human, recombinant CYP2B6
Cytochrome P450 2B6 [4] = target: T2, Cytochrome P450 2B6; assay: as §2
Cytochrome P450 2C9 [5] = target: T3, Cytochrome P450 2C9 (Homo sapiens, UniProt P11712); assay: Mechanism based inhibition of human cytochrome P450 2C9 measured by Tolbutamide methyl hydroxylation; assay type: ADME
Cytochrome P450 3A4 [6] = target: T4, Cytochrome P450 3A4 (Homo sapiens, UniProt P08684); assay: (§3) Mechanism based inhibition of human cytochrome P450 3A4 measured by testosterone 6-beta hydroxylation; assay type: ADME
Cytochrome P450 1A2 [7] = target: T5, Cytochrome P450 1A2 (Homo sapiens, UniProt P05177); assay: Mechanism based inhibition of human cytochrome P450 1A2 measured by 7-ethoxyresorufin O-deethylation (EROD); assay type: ADME
T5 sequence (P05177 whole entry): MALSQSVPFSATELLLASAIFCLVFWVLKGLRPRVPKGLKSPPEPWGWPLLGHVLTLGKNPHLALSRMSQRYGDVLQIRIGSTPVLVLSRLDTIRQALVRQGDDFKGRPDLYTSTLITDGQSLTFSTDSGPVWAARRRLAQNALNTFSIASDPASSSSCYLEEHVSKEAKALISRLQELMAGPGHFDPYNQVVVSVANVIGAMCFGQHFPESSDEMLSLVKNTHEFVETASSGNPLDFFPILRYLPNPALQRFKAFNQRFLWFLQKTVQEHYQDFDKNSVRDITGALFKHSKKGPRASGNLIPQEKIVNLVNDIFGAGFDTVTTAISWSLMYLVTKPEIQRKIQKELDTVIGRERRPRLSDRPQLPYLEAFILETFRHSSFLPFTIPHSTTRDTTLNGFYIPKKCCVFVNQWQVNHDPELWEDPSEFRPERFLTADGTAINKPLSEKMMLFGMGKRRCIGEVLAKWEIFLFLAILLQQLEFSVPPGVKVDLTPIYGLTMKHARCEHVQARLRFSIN

Cytochrome P450 2C9 [8] = target: T3, Cytochrome P450 2C9; assay: Mechanism based inhibition of human cytochrome P450 2C9 measured by 7-EFC O-deethylation; assay type: ADME
CYP2D6 = CYP2D6 (Homo sapiens, UniProt P10635); assay: (§4) Mechanism based inhibition of human cytochrome P450 2D6 measured by […] 1'-hydroxylation; assay type: ADME; conditions: human, probe bufurarol
Cytochrome P450 2D6 = Cytochrome P450 2D6 (Homo sapiens, UniProt P10635); assay: as §4; assay type: ADME
Cytochrome P450 3A4 [9] = target: T4, Cytochrome P450 3A4; assay: Mechanism based inhibition of human cytochrome P450 3A4; assay type: ADME
CYP3A4 [10] = target: T6, CYP3A4 (Homo sapiens, UniProt P08684); assay: as §3; assay type: ADME; conditions: human, probe testosterone (6-beta hydroxylation)
Cytochrome P450 3A4 [11] = target: T4, Cytochrome P450 3A4; assay: Mechanism based inhibition of human cytochrome P450 3A4, partition ratio; assay type: ADME
CYP3A4 [12] = target: T6, CYP3A4; assay: (§5) Mechanism based inhibition of human cytochrome P450 3A4 measured by DBF fluorescence; assay type: ADME; conditions: human, probe DBF
Cytochrome P450 3A4 [13] = target: T4, Cytochrome P450 3A4; assay: as §5; assay type: ADME
Cytochrome P450 2C19 = Cytochrome P450 2C19 (Homo sapiens, UniProt P33261); assay: Mechanism based inhibition of human cytochrome P450 2C19 evaluated using Tolbutamide; assay type: ADME
Cytochrome P450 2C8 [14] = target: T7, Cytochrome P450 2C8 (Homo sapiens, UniProt P10632); assay: Mechanism based inhibition of human cytochrome P450 2C8 using human liver microsomes; assay type: ADME, Microsome
T7 sequence (P10632 whole entry): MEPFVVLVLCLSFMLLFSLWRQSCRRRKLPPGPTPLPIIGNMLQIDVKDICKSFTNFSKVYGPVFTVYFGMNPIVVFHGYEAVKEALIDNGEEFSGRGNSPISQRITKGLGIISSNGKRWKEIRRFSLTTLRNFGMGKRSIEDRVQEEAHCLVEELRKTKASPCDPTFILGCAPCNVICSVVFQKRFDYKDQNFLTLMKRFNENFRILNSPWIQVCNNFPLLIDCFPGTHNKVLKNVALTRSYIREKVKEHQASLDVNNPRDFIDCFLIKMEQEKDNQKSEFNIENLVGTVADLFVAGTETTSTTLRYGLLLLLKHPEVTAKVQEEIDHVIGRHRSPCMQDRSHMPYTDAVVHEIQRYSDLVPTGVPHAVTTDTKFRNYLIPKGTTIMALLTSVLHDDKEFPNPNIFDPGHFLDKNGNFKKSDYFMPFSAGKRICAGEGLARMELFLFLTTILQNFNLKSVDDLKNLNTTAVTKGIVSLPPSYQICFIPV

Cytochrome P450 1A2 [15] = target: T5, Cytochrome P450 1A2; assay: Mechanism based inhibition of human cytochrome P450 1A2 measured by phenacetin O-deethylation (POD); assay type: ADME
Cytochrome P450 2A6 = target: T8, Cytochrome P450 2A6 (Homo sapiens, UniProt P11509); assay: Mechanism based inhibition of human cytochrome P450 2A6 measured by coumarin 7-hydroxylation; assay type: ADME
T8 sequence (P11509 whole entry): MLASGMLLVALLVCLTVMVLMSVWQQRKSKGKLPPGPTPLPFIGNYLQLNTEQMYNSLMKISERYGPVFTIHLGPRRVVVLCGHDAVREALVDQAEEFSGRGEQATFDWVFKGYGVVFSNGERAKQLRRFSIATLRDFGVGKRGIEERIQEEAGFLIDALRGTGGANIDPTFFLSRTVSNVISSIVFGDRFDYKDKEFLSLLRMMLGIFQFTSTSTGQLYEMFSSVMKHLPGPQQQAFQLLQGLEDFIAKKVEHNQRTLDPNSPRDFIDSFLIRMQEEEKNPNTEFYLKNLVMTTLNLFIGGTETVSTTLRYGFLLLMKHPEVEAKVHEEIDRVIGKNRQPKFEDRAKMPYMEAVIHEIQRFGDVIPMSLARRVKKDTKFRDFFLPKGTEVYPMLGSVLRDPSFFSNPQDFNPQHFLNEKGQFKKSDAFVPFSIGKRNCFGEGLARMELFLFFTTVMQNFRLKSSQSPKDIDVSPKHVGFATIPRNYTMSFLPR

Cytochrome P450 2C8 [16] = target: T7, Cytochrome P450 2C8
Description: Mechanism based inhibition of human cytochrome P450 2C8 measured by paclitaxel hydroxylation using a recombinant system

CYP2B6 [17] = target: T1, CYP2B6; assay: (§6) Mechanism based inhibition of human cytochrome P450 2B6 measured by N-(3,5-dichloro-4-pyridyl)-3- (cyclopentoxy)-4- methoxybenzamide (DCMB) hydroxylase activity; assay type: ADME; conditions: human
Cytochrome P450 2B6 [18] = target: T2, Cytochrome P450 2B6; assay: as §6; assay type: ADME
Cytochrome P450 2B6 [19] = target: T2, Cytochrome P450 2B6; assay: Mechanism based inhibition of human cytochrome P450 2B6 measured by 7-EFC O-deethylation; assay type: ADME
Cytochrome P450 3A4 [20] = target: T4, Cytochrome P450 3A4; assay: Mechanism based inhibition of human cytochrome P450 3A4 measured by midazolam 1'-hydroxylation; assay type: ADME
Cytochrome P450 2E1 = Cytochrome P450 2E1 (Homo sapiens, UniProt P05181); assay: Mechanism based inhibition of human cytochrome P450 2E1 measured by chlorzoxazone 6-hydroxylase activity; assay type: ADME
Cytochrome P450 2E1, sequence (P05181 whole entry): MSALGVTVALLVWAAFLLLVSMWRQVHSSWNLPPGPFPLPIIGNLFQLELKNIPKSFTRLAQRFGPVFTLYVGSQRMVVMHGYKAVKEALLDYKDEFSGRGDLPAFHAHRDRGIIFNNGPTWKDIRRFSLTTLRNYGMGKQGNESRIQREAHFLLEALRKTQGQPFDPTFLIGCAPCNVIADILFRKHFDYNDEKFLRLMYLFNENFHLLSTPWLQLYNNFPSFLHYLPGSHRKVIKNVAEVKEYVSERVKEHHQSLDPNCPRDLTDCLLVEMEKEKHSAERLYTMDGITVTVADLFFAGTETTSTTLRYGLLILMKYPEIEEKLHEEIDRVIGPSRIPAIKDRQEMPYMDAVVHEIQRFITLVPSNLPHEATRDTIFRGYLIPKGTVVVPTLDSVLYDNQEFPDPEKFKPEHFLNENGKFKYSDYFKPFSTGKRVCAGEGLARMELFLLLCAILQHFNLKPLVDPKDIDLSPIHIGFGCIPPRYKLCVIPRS

T4 sequence (P08684 whole entry): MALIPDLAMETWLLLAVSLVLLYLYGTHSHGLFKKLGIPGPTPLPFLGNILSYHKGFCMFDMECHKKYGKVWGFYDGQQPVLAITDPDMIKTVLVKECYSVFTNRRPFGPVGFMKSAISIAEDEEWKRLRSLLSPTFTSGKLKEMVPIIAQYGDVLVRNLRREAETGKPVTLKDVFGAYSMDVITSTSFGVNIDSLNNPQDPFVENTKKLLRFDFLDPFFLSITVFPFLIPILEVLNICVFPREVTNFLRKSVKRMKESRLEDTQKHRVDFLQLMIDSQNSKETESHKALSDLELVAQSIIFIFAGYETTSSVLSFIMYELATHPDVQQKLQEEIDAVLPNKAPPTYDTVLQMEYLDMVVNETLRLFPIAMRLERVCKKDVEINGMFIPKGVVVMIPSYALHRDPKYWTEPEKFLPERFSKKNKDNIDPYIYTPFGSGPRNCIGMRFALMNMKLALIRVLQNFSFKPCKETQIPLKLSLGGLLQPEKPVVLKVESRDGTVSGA
T3 sequence (P11712 whole entry): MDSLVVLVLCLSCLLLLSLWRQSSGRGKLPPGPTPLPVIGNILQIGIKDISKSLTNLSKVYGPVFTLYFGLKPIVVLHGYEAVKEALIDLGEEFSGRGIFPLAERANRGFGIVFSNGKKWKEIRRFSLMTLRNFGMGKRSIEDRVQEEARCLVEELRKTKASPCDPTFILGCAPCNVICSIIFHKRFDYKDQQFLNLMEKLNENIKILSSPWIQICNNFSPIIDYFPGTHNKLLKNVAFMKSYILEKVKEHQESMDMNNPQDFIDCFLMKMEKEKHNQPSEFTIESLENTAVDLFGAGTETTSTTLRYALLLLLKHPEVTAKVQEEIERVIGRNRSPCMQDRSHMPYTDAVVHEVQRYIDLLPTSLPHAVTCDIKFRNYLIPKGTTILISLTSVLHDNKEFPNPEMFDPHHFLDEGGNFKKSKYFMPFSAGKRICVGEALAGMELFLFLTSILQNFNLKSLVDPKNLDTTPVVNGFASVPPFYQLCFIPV
T6 sequence (P08684 whole entry): as the sequence (P08684 whole entry) above
CYP2D6, sequence (P10635 whole entry): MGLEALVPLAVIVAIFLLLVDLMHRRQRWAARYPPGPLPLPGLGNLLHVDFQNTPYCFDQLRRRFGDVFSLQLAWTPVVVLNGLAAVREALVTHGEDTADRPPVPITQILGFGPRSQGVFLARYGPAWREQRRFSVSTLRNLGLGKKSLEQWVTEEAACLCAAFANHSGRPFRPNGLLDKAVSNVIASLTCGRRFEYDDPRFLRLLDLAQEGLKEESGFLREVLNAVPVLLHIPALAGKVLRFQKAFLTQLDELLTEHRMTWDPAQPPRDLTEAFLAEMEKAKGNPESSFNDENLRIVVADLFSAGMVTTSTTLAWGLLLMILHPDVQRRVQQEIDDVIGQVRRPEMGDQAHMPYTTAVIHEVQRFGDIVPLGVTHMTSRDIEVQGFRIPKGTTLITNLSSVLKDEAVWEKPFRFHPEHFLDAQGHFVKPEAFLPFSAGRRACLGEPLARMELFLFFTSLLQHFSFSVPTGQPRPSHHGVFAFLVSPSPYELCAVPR
Cytochrome P450 2D6, sequence (P10635 whole entry): as above
Cytochrome P450 2C19, sequence (P33261 whole entry): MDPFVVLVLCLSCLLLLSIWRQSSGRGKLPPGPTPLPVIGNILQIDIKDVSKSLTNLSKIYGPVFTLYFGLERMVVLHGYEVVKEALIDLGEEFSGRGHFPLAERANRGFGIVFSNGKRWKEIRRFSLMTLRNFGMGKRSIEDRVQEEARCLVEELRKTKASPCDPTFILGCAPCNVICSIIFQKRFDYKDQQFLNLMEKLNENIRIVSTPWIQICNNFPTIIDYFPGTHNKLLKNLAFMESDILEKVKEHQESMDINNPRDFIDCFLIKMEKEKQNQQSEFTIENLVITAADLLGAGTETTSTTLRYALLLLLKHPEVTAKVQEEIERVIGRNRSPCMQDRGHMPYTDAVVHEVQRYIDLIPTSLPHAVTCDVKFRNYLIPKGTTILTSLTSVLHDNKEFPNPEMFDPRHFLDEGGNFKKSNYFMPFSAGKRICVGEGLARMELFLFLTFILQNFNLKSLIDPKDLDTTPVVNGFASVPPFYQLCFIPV

For COC(=O)[C@H](c1ccccc1Cl)N1CCc2sccc2C1 [CLOPIDOGREL], which kinact (CYP2B6 [1]) is on record?
The kinact was 0.00583 s⁻¹.

What about the Ki (Cytochrome P450 2B6 [2]) of the same compound?
The Ki was 0.5 µM.

And the kinact (CYP2B6 [3])?
The kinact was 0.0025 s⁻¹.

What about the Ki (Cytochrome P450 2B6 [4]) of the same compound?
The Ki was 1.1 µM.

What does the source list for CCOP(=S)(OCC)Oc1ccc([N+](=O)[O-])cc1 [PARATHION]?
mechanism based inhibition (Cytochrome P450 2C9 [5]): Cytochrome P450 mechanistic inhibitor: PMID 9023313; mechanism based inhibition (Cytochrome P450 3A4 [6]): Cytochrome P450 mechanistic inhibitor: PMID 9023313; mechanism based inhibition (Cytochrome P450 1A2 [7]): Cytochrome P450 mechanistic inhibitor: PMID 9023313

With COc1cc(C2Oc3cc([C@H]4Oc5cc(O)cc(O)c5C(=O)[C@@H]4O)ccc3OC2CO)ccc1O (stereo partly drawn) [SILIBININ] as the compound, how does the Ki (Cytochrome P450 2C9 [8]) read?
Its Ki is 5 µM.

Which kinact (CYP2D6) does the source give for CC(C)(C)NC(=O)[C@@H]1CN(Cc2cnc3occc3c2)CCN1C[C@@H](O)C[C@@H](Cc1ccccc1)C(=O)N[C@H]1c2ccccc2C[C@H]1O here?
The kinact was 0.003 s⁻¹.

What about the Ki (Cytochrome P450 2D6) of the same compound?
The Ki was 32 µM.

And the mechanism based inhibition (Cytochrome P450 3A4 [9])?
The mechanism based inhibition was “Cytochrome P450 mechanistic inhibitor: PMID 10757976”.

And the kinact (CYP3A4 [10])?
The kinact was 0.027 s⁻¹.

And the Ki (Cytochrome P450 3A4 [6])?
The Ki was 7.5 µM.

And the mechanism based inhibition (Cytochrome P450 3A4 [6])?
The mechanism based inhibition was “Cytochrome P450 mechanistic inhibitor: PMID 8531125”.

And the Partition ratio (Cytochrome P450 3A4 [11])?
Its Partition ratio is 1.4.

For CC(O)CCC(=O)c1ccoc1 (stereo not drawn), which kinact (CYP3A4 [12]) is on record?
The kinact was 0.0025 s⁻¹.

And the Ki (Cytochrome P450 3A4 [13])?
The Ki was 20 µM.

What about the Partition ratio (Cytochrome P450 3A4 [11]) of the same compound?
The Partition ratio was 257.

Which Ki (Cytochrome P450 2C19) does the source give for NNC(=O)c1ccncc1 [ISONIAZID] here?
Its Ki is 10 µM.

What about the Ki (Cytochrome P450 2C8 [14]) of the same compound?
Its Ki is 170 µM.

What about the Ki (Cytochrome P450 1A2 [15]) of the same compound?
The Ki was 56 µM.

What about the Ki (Cytochrome P450 2A6) of the same compound?
The Ki was 60 µM.

And the Ki (Cytochrome P450 2C8 [16])?
The Ki was 374 µM.

What does the source list for C#CCOc1cc(C(=O)Nc2c(Cl)cncc2Cl)ccc1OC?
kinact (CYP2B6 [17]): 0.0015 s⁻¹; Ki (Cytochrome P450 2B6 [18]): 5.1 µM

Which Ki (Cytochrome P450 2B6 [19]) does the source give for CC/C(=C(\c1ccccc1)c1ccc(OCCN(C)C)cc1)c1ccccc1 [TAMOXIFEN] here?
Its Ki is 0.9 µM.

And the mechanism based inhibition (Cytochrome P450 3A4 [20])?
Its mechanism based inhibition is “Cytochrome P450 mechanistic inhibitor”.

How did the mechanism based inhibition (Cytochrome P450 2E1) turn out when FC(F)(F)C(Cl)Br (stereo not drawn) [HALOTHANE] was run?
The mechanism based inhibition was “Cytochrome P450 mechanistic inhibitor: PMID 8902272”.
